The values below come from patent US7705047B2, “Amidoacetonitrile derivatives” (Novartis AG, priority 2003, dated 2010).

The assay has as its system Trichostrongylus colubriformis and Haemonchus contortus. The assay is described as follows: In-vivo test on Trichostrongylus colubriformis and Haemonchus contortus on Mongolian gerbils using peroral application. Details: species or system Mongolian gerbils (Meriones unguiculatus). The settings on record: Mongolian gerbils infected with T. colubriformis and H. contortus, dose of 16 mg/kg, worm count 3 days after treatment. The text has this: 1. In-vivo Test on Trichostrongylus colubriformis and Haemonchus contortus on Mongolian Gerbils (Meriones unguiculatus) using Peroral Application Six to eight week old Mongolian gerbils are infected through a stomach tube with ca. 2000 third instar larvae each of T. colubriformis and H. contortus. […] On day 9 (3 days after treatment), when most of the H. contortus that are still present are late 4th instar larvae and most of the T. colubriformis are immature adults, the gerbils are killed in order to count the worms. The efficacy is calculated as the % reduction of the number of worms in each gerbil, compared with the geometric average of number of worms from 6 infected and untreated gerbils.

SMILES strings stand for the structures.

As to `CC(C#N)(COc1cc(C#N)ccc1Oc1ccc(Cl)cc1Cl)NC(=O)c1ccc(OC(F)(F)F)cc1` (stereo not shown) [Compound 1.47, N-[1-cyano-1-methyl-2-(5-cyano-2-{2,4-dichlorophenoxy}-phenoxy)-ethyl]-4-trifluoromethoxybenzamide], the “elimination of the nematode infestation” value is on record as “complete elimination”.
